Here are results for 2 compounds from patent publication EP3866610B1, “CHOCOLATE MATRIX COMPRISING CURCUMIN AND RESVERATROL” (priority 2018, dated 2020).

Values after ≈ are worked out from the molar mass of the structure shown. Like-named read-outs stand apart in the source and are kept apart here.

The format of data set [1] is physicochemical. As to the method:
(§1) The SSF was prepared following the instructions included in the article published by Minekus et al. in 2014 in the journal Food & Function (Minekus M, Alminger M, Alvito P, et al. A standardized static in vitro digestion method suitable for food - an international consensus. Food & Funct. 2014. 5:1113-1124). In detail, the SSF was prepared by mixing the following saline solutions: • KCI at the concentration of 15.1 mmol/l, • KH2PO4 at the concentration of 3.7 mmol/l, • NaHCO3 at the concentration of 13.6 mmol/l, • MgCl2(H2O)6 at the concentration of 0.15 mmol/l, and • (NH4)2CO3 at the concentration of 0.06 mmol/l. […]
(§2) Each sample as illustrated below was analysed in triplicate and the concentration of curcumin and resveratrol was calculated on the basis of two calibration curves previously constructed using the curcumin and resveratrol supplied as reference substance and dissolved in 96% ethanol. For processing the calibration curves, the curcumin and resveratrol solutions (prepared by dissolving an exactly weighed quantity of substance in 96% ethanol) were prepared and subjected to analysis in a concentration range, from 0.5 to 200 µg/ml . […]

Data set [2] is described as follows: physchem. The data set is classed as physicochemical. As to conditions: maltitol 1.35 g, curcumin 50 mg, resveratrol 50 mg, extraction with 6 ml SSF at room temperature. On the procedure:
as §1, §2

The nature of data set [3]: physchem. It counts as physicochemical. As to conditions: dmem medium, mean of technical triplicates, read-out: Concentration in DMEM medium. On the procedure: (§3) The chromatography analyses were performed using a HPLC-DAD Agilent 1100 system (Agilent, Waldbronn, Germany), comprising a quaternary pump, self-sampler with thermostat equipped with a 100 µl injection loop, column thermostat, DAD Agilent 1100 detector (Agilent, Waldbronn, Germany). For the system control and data analysis the Chemstation software was used. The separation of the compounds was obtained with a Gemini C18 110A analytical column (150 mm × 2 mm; particle diameter 5 µm), connected to a suitable pre-column, both purchased from Phenomenex, Torrance, CA, USA. […]
as §2
Subsequently, the cell pellet was re-suspended in 24 ml of DMEM medium and the sample was centrifuged at 6000 rpm for 10 minutes to remove the insoluble part. […] The quantities of the compounds added to the medium and were selected on the basis of the first experimental phase. […]

The next data set relates to HaCat cells. The data set is classed as in vitro ADME, Human. The following applies: HaCat cells incubated 120 minutes at 37°C, mean of technical triplicates. On the procedure: as §3, §2
The cells were detached mechanically using a scraper in 2 ml of PBS and transferred into a 15 ml Falcon test tube for being centrifuged at 1500 rpm for 5 minutes. […] The results obtained, reported in Table 4, were expressed as a mean of the technical triplicates. […]

Regarding `COc1cc(/C=C/C(=O)CC(=O)/C=C/c2ccc(O)c(OC)c2)ccc1O` [Curcumin], the “solubility in SSF” value in data set [1] is recorded as “substantial insolubility”.
Turning to `Oc1ccc(/C=C/c2cc(O)cc(O)c2)cc1` [Resveratrol, 3,5,4'-trihydroxy-trans-stilbene], in the data set “physchem [2]” (SAMPLE 2: 2.8528 g dark chocolate, ethanol 99.9 µL), the Concentration is 82470 ng/mL. Further, the solubility in the data set “physchem [2]” (simulated salivary fluid, SAMPLE 1: 2.8528 g dark chocolate, ethanol 199.8 µL, read-out: Concentration) is 156 µg/mL (≈ 683 µM); in “physchem [3]” (no matrix, 167 mg curcumin and 167 mg resveratrol in 20 ml DMEM, filtered), 31.8 µg/mL (≈ 139 µM); in “physchem [3]” (with chocolate matrix: 200 mg curcumin, 200 mg resveratrol, 5.4 g maltitol, 12 g dark chocolate, 799.2 µl ethanol, hexane-defatted, re-suspended in 24 ml DMEM) it was 125 µg/mL (≈ 547 µM). For the same compound, the “Concentration in cell pellet (absorption by the cells)” value came to 0 ng/mL in the data set with HaCat cells (no matrix, pellet re-suspended in 500 µl 96° ethanol); 3660 ng/mL with HaCat cells (with chocolate matrix, maltitol and ethanol).
